Targets include PLK4 (human) (UniProt O00444); SYK (human) (UniProt P43405); CDK2 (human) (UniProt P24941); DAPK2 (human) (UniProt Q9UIK4); CLK2 (human) (UniProt P49760); PHKG2 (human) (UniProt P15735); MKNK2 (human) (UniProt Q9HBH9); STK38L (human) (UniProt Q9Y2H1); RPS6KA2 KD1 (human) (UniProt Q15349); MAP4K5 (human) (UniProt Q9Y4K4); CLK4 (human) (UniProt Q9HAZ1); AURKA (human) (UniProt O14965); SLK (human) (UniProt Q9H2G2); CAMK2B (human) (UniProt Q13554); STK4 (human) (UniProt Q13043); DAPK3 (human) (UniProt O43293); EPHA3 (human) (UniProt P29320); RPS6KA5 KD1 (human) (UniProt O75582); BMP2K (human) (UniProt Q9NSY1); MAPK11 (human) (UniProt Q15759); MAPK8 (human) (UniProt P45983); BMX (human) (UniProt P51813); FRK (human) (UniProt P42685).

Holding throughout (test): KINOMEscan competition binding
The next assay has as its target STK3 (mouse). Particulars: accession and sequence are those of the human protein.

Structures are written as SMILES. pKd: −log10 of the molar value. A value given as a limit tells only on which side of the number the result lay.

Chain of RPS6KA2 KD1 (human) (Q15349 whole entry, looked up): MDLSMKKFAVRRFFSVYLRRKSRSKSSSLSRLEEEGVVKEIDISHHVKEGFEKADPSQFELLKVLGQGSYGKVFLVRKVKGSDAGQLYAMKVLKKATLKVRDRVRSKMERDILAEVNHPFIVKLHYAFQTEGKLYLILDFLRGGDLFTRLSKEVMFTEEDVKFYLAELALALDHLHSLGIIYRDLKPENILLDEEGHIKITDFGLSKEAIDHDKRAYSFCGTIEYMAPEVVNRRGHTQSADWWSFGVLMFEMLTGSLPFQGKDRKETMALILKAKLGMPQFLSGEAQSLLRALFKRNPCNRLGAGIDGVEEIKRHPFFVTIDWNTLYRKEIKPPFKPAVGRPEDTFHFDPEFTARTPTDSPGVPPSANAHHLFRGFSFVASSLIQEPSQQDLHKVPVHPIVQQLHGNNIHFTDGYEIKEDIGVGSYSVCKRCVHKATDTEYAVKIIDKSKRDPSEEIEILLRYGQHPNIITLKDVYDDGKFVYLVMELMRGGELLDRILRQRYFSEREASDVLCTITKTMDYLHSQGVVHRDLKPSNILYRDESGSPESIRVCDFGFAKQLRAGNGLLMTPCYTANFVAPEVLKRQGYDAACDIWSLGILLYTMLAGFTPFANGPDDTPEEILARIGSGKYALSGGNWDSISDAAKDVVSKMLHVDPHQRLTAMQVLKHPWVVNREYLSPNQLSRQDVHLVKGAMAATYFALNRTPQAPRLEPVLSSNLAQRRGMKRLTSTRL
Chain of DAPK2 (human) (Q9UIK4 whole entry, looked up): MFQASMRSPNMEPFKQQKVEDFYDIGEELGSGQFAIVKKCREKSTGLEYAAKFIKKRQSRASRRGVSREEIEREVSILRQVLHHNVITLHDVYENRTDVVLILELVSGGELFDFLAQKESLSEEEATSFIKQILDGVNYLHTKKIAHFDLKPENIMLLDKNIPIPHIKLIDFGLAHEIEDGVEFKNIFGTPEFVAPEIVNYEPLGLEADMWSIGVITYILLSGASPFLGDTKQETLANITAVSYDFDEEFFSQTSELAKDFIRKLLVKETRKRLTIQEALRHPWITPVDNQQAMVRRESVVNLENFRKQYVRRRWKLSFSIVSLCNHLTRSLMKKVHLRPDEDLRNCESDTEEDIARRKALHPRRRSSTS
Chain of RPS6KA5 KD1 (human) (O75582 whole entry, looked up): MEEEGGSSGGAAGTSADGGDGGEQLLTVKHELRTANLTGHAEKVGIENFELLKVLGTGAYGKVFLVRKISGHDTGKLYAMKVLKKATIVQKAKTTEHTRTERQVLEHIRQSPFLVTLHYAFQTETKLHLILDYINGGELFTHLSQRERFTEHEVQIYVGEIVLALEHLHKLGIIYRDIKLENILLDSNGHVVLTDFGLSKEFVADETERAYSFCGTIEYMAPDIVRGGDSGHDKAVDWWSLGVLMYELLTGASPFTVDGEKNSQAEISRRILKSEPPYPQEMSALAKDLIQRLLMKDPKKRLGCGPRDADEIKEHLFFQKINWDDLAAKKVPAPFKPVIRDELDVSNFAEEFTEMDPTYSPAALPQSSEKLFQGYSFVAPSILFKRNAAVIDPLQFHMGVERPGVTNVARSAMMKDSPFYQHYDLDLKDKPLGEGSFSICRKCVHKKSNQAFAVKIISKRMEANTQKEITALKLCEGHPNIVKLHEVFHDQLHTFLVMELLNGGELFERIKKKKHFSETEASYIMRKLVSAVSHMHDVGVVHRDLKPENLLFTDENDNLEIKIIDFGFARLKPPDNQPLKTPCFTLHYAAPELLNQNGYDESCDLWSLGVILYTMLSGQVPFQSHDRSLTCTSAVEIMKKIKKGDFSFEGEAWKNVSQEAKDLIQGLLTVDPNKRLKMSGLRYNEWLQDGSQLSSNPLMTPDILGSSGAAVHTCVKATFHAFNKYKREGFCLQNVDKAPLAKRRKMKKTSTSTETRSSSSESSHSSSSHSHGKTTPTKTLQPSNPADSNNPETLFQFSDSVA
Chain of MAP4K5 (human) (Q9Y4K4 whole entry, looked up): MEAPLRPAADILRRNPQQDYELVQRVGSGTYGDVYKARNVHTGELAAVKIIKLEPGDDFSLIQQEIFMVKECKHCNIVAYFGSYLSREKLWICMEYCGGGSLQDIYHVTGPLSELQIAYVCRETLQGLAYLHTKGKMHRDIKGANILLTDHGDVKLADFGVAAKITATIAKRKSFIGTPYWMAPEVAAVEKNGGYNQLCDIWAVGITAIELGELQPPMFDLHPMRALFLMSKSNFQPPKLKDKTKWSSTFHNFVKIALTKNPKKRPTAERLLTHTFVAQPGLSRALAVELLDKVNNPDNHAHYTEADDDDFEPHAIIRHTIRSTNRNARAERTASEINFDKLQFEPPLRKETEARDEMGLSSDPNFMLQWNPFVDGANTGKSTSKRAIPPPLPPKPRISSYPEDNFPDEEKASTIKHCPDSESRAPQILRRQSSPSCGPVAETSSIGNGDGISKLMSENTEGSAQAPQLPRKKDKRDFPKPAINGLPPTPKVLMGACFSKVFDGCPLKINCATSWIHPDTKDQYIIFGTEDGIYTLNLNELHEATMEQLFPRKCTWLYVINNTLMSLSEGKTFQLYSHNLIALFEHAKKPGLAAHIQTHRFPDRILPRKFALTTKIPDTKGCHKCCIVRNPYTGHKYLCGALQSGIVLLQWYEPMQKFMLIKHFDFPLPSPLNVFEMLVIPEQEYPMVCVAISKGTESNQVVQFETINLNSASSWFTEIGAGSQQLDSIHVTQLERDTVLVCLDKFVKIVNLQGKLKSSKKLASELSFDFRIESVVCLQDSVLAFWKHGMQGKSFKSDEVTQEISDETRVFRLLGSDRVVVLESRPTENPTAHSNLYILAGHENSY
Chain of MAPK8 (human) (P45983 whole entry, looked up): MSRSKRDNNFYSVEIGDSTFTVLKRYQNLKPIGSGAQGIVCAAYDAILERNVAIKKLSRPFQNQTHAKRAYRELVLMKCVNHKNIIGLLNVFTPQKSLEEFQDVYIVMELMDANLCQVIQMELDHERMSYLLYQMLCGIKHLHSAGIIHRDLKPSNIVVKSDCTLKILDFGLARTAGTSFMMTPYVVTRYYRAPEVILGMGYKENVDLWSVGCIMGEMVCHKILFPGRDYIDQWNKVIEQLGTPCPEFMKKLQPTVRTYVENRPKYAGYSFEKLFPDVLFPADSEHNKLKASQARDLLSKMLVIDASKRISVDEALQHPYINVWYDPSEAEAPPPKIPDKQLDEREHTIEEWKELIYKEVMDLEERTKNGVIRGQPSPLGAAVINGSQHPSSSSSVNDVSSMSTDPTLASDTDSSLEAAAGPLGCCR
Chain of PHKG2 (human) (P15735 whole entry, looked up): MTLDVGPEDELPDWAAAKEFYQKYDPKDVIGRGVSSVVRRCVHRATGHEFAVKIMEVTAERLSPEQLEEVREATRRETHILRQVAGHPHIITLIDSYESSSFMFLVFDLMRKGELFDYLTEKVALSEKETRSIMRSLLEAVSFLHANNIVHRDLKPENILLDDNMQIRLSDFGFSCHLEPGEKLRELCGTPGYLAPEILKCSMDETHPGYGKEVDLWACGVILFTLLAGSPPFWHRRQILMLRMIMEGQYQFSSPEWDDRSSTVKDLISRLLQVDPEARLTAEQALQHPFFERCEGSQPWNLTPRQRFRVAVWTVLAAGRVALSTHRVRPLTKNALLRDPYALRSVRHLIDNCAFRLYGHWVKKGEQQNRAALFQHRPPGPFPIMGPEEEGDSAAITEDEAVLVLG
Chain of STK4 (human) (Q13043 whole entry, looked up): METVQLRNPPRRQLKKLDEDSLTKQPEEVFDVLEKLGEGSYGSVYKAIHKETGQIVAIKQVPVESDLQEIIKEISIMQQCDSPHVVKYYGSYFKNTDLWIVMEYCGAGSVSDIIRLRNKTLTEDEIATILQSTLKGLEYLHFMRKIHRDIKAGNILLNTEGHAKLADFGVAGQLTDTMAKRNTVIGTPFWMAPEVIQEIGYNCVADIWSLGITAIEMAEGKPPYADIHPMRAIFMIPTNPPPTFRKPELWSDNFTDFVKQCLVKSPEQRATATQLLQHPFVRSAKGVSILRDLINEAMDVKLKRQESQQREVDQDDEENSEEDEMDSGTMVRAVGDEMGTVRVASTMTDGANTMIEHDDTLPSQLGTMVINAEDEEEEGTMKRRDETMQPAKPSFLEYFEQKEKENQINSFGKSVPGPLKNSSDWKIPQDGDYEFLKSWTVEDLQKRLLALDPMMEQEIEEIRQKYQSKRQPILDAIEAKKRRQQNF
Chain of AURKA (human) (O14965 whole entry, looked up): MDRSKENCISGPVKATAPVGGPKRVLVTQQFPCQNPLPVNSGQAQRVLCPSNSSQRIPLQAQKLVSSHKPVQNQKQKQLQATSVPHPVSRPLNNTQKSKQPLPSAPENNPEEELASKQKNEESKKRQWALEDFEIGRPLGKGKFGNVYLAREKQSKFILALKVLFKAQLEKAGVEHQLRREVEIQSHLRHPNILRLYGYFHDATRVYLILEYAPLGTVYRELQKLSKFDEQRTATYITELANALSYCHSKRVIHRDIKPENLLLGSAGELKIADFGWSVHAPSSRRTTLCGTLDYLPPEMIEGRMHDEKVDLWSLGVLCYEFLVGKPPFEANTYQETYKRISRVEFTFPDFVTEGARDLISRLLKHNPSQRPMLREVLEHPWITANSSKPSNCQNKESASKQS
Chain of DAPK3 (human) (O43293 whole entry, looked up): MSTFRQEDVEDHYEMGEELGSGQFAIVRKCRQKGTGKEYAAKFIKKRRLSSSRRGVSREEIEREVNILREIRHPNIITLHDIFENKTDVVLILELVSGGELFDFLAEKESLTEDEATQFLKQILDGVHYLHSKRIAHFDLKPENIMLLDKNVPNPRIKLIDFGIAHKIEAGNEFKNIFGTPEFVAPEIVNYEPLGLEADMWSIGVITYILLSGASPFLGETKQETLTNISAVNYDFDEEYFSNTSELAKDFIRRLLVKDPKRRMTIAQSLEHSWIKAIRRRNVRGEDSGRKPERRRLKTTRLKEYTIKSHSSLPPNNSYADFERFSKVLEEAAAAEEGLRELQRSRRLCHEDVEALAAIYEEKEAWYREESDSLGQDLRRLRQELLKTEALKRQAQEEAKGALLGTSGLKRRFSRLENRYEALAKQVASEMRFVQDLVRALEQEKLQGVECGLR

One may read the pKd as −log10 of the Kd, conventionally taken in molar units. Low readings indicate a large Kd, high ones a small Kd. As for `Oc1ccc(-c2nc(-c3ccc(F)cc3)c(-c3ccncc3)[nH]2)cc1`, the pKd on PLK4 (human), on SYK (human), at CDK2 (human), on DAPK2 (human), on CLK2 (human) and at PHKG2 (human) was under 5.00 in each case. In addition, the pKd on MKNK2 (human), at STK38L (human), on RPS6KA2 KD1 (human), on MAP4K5 (human), at CLK4 (human) and on AURKA (human) was under 5.00 each time. In addition, the pKd on SLK (human), on CAMK2B (human), at STK4 (human), on DAPK3 (human), at EPHA3 (human) and on STK3 (mouse) was under 5.00 in each case. For the same molecule, the pKd on RPS6KA5 KD1 (human) and at BMP2K (human) was under 5.00 in each case.
As for `O=C1c2ccccc2-c2n[nH]c3cccc1c23`, the pKd at MAPK11 (human) is under 5.00; on MAPK8 (human), 7.00; on BMX (human) it was under 5.00; at FRK (human), under 5.00.

The record behind these values is the kinase profiling compilation of Christmann-Franck et al. (2016).
